In US20100119599A1 (ARCHER PHARMACEUTICALS, INC., priority 2006, published 2010):

What was measured:
[1] = system: Aβ1-42; test: Measurement of Aβ1-42 in culture medium of 7W WT APP751 CHO cells by ELISA; type: cell-based, Chinese hamster; conditions: for activity at 5 µM: Cricetulus griseus, Table 1, 5 μM test compound, CHO cells stably transfected with human APP751, culture medium, ELISA, control DMSO, 0 = no detectable amount, read-out: Aβ1-42 (% of control); for Aβ1-42 (% of control): CHO cells that overexpress APP751, zero = below the detection limit of the assay
[2] = system: Aβ1-40; test: Measurement of Aβ1-40 in culture medium of 7W WT APP751 CHO cells by ELISA; type: cell-based, Chinese hamster; conditions: for activity at 5 µM: Cricetulus griseus, Table 1, 5 μM test compound, CHO cells stably transfected with human APP751, culture medium, ELISA, control DMSO, 0 = no detectable amount; for Aβ1-40 (% of control): CHO cells that overexpress APP751, zero = below the detection limit of the assay
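Further: 5 µM test compound but RI-coded compounds at 10 µM for 24 hours.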

Compound	activity at 5 µM [1] [%]	activity at 5 µM [2] [%]	Aβ1-42 (% of control) [1]	Aβ1-40 (% of control) [2]
COc1ccc(COC(=O)C2=C(C)NC3=C(C(=O)CCC3)C2c2cccc(C)c2)cc1 (stereo not drawn) [ST052354, (4-methoxyphenyl)methyl 2-methyl-4-(3-methylphenyl)-5-oxo-1,4,6,7,8-pentahydroquinoline-3-carboxylate]	57.2	95.1	–	–
CCOc1cc(/C=c2\sc3n(c2=O)C(N)=C(C#N)C(c2ccc(OCC(N)=O)c(OCC)c2)C=3C#N)ccc1OCC(N)=O (stereo not drawn) [ST025037, 2-[4-(5-amino-2-{[4-(carbamoylmethoxy)-3-ethoxyphenyl]methylene}-6,8-dicyano-3-oxo(4,7-dihydro-1,3-thiazolidino[3,2-a]pyridin-7-yl))-2-ethoxyphenoxy]acetamide]	–	–	67.1 % of control	80.02 % of control
Cn1cccc1/C=c1/sc2n(c1=O)C(N)=C(C#N)C(c1cccn1C)C=2C#N (stereo not drawn) [ST003361, 5-amino-7-(1-methylpyrrol-2-yl)-2-[(1-methylpyrrol-2-yl)methylene]-3-oxo-4,7-dihydro-1,3-thiazolidino[3,2-a]pyridine-6,8-dicarbonitrile]	–	–	90.24 % of control	43.9 % of control
CC1=C(C(=O)OCc2ccccc2)C(c2ccccc2Br)C2=C(CCCC2=O)N1 (stereo not drawn) [ST052408, phenylmethyl 4-(2-bromophenyl)-2-methyl-5-oxo-1,4,6,7,8-pentahydroquinoline-3-carboxylate]	63.4	63	–	–
COC(=O)C1=C(C)NC2=C(C(=O)CC(c3cccs3)C2)C1c1ccc(Cl)c(Cl)c1 (stereo not drawn) [ST052414, methyl 4-(3,4-dichlorophenyl)-2-methyl-5-oxo-7-(2-thienyl)-1,4,6,7,8-pentahydroquinoline-3-carboxylate]	66.9	70.2	–	–
CC1=C(C(=O)OCc2ccccc2)C(c2ccc(C(F)(F)F)cc2)C2=C(CCCC2=O)N1 (stereo not drawn) [ST052323, phenylmethyl 2-methyl-5-oxo-4-[4-(trifluoromethyl)phenyl]-1,4,6,7,8-pentahydroquinoline-3-carboxylate]	0	4.91	–	–
COc1cc(C2C(C(=O)OCCc3ccccc3)=C(C)NC3=C2C(=O)CC(C)(C)C3)ccc1O (stereo not drawn) [ST015094, 2-phenylethyl 4-(4-hydroxy-3-methoxyphenyl)-2,7,7-trimethyl-5-oxo-1,4,6,7,8-pentahydroquinoline-3-carboxylate]	59.8	56.3	–	–
CC1=C(C(=O)OCCc2ccccc2)C(c2cccc(Cl)c2)C2=C(CC(C)(C)CC2=O)N1 (stereo not drawn) [ST015084, 2-phenylethyl 4-(3-chlorophenyl)-2,7,7-trimethyl-5-oxo-1,4,6,7,8-pentahydroquinoline-3-carboxylate]	80.2	59.5	–	–
COc1ccccc1NC(=O)C1=C(C)NC2=C(C(=O)CCC2)C1c1ccc(Cl)cc1 (stereo not drawn) [ST052292, [4-(4-chlorophenyl)-2-methyl-5-oxo(3-1,4,6,7,8-pentahydroquinolyl)]-N-(2-methoxyphenyl)carboxamide]	68.2	85.8	–	–
CCOc1cc(C2C(C(=O)OCC(C)C)=C(C)NC3=C2C(=O)CC(c2ccc(Cl)cc2)C3)ccc1O (stereo not drawn) [ST017117, 2-methylpropyl 7-(4-chlorophenyl)-4-(3-ethoxy-4-hydroxyphenyl)-2-methyl-5-oxo-1,4,6,7,8-pentahydroquinoline-3-carboxylate]	81.7	25.7	–	–
CCOC(=O)C1=CN(c2cc(C)ccc2C)C=C(C(=O)OCC)C1c1ccccc1OCC [ST052488, ethyl 1-(2,5-dimethylphenyl)-5-(ethoxycarbonyl)-4-(2-ethoxyphenyl)-1,4-dihydropyridine-3-carboxylate]	–	–	57.75 % of control	60.3 % of control
COc1ccc(C2C(C(=O)OC3CCCC3)=C(C)NC3=C2C(=O)CC(C)(C)C3)c(OC)c1OC (stereo not drawn) [ST013328, cyclopentyl 2,7,7-trimethyl-5-oxo-4-(2,3,4-trimethoxyphenyl)-1,4,6,7,8-pentahydroquinoline-3-carboxylate]	93.4	43.1	–	–
CCOC(=O)C1=C(C)NC2=C(C(=O)CCC2)C1c1ccc(Cl)cc1Cl (stereo not drawn) [ST024444, ethyl 4-(2,4-dichlorophenyl)-2-methyl-5-oxo-1,4,6,7,8-pentahydroquinoline-3-carboxylate]	16.6	37.4	–	–
CC1=C(C(=O)OC2CCCCC2)C(c2ccc(Cl)c(Cl)c2)C2=C(CCCC2=O)N1 (stereo not drawn) [ST013269, cyclohexyl 4-(3,4-dichlorophenyl)-2-methyl-5-oxo-1,4,6,7,8-pentahydroquinoline-3-carboxylate]	1.35	12.3	–	–
CCOCCOC(=O)C1=C(C)NC2=C(C(=O)CCC2)C1c1coc2ccccc2c1=O (stereo not drawn) [ST052370, 2-ethoxyethyl 2-methyl-5-oxo-4-(4-oxochromen-3-yl)-1,4,6,7,8-pentahydroquinoline-3-carboxylate]	69.7	68.6	–	–
COc1ccc(Br)cc1C1C(C(=O)OCC2CCCO2)=C(C)NC2=C1C(=O)CCC2 (stereo not drawn) [ST052224, oxolan-2-ylmethyl 4-(5-bromo-2-methoxyphenyl)-2-methyl-5-oxo-1,4,6,7,8-pentahydroquinoline-3-carboxylate]	68.1	76.9	–	–
N#CC1=C2NC(=O)c3c(sc4c3CCCCC4)N2C2=C(C(=O)CCC2)C1c1ccc(F)cc1 (stereo not drawn) [ST041668, 5-(4-fluorophenyl)-4,8-dioxo-1,2,3,5,7,9,10,11,12,13,15-undecahydrocyclohepta[1,2-b]quinolino[1′,2′-2,1]pyrimidino[5,6-d]thiophene-6-carbonitrile]	27.9	88.7	–	–
COC(=O)C1=CN(CC2CCCO2)C=C(C(=O)OC)C1c1cccc(Br)c1 (stereo not drawn) [ST051569, methyl 4-(3-bromophenyl)-5-(methoxycarbonyl)-1-(oxolan-2-ylmethyl)-1,4-dihydropyridine-3-carboxylate]	–	–	72.77 % of control	49.02 % of control
CCOc1ccccc1C1C(C(=O)OC2CCCCC2)=C(C)NC2=C1C(=O)CC(C)(C)C2 (stereo not drawn) [ST017304, cyclohexyl 4-(2-ethoxyphenyl)-2,7,7-trimethyl-5-oxo-1,4,6,7,8-pentahydroquinoline-3-carboxylate]	57.2	52	–	–
CCSCCOC(=O)C1=C(C)NC2=C(C(=O)CCC2)C1c1ccc(C(=O)OC)cc1 (stereo not drawn) [ST017106, methyl 4-{3-[(2-ethylthioethyl)oxycarbonyl]-2-methyl-5-oxo-4-1,4,6,7,8-pentahydroquinolyl}benzoate]	0	36.8	–	–
CC(=O)Oc1ccc(C2C(C(=O)OCCOc3ccccc3)=C(C)NC3=C2C(=O)CC(c2ccccc2)C3)cc1 (stereo not drawn) [ST017230, 4-{2-methyl-5-oxo-7-phenyl-3-[(2-phenoxyethyl)oxycarbonyl]-4-1,4,6,7,8-pentahydroquinolyl}phenyl acetate]	84.7	69.1	–	–
CCOC(=O)C1=C(C)NC(C)=C(C(=O)OCC)C1c1ccc(F)cc1 [ST211500, ethyl 5-(ethoxycarbonyl)-4-(4-fluorophenyl)-2,6-dimethyl-1,4-dihydropyridine-3-carboxylate]	–	–	19.53 % of control	20.67 % of control
CC1(C)CC(=O)C2=C(C1)N(Cc1ccccc1)C(N)=C(C#N)C21CCOCC1 [ST014138, 2-amino-7,7-dimethyl-5-oxo-1-benzylspiro[1,4,6,7,8-pentahydroquinoline-4,4′-2′ H-3′,4,5′,6′-tetrahydropyran]-3-carbonitrile]	65.3	64.1	–	–
CC1=C(C(=O)OC2CCCCC2)C(c2ccccc2Cl)C2=C(CC(C)(C)CC2=O)N1 (stereo not drawn) [ST013235, cyclohexyl 4-(2-chlorophenyl)-2,7,7-trimethyl-5-oxo-1,4,6,7,8-pentahydroquinoline-3-carboxylate]	43	0	–	–
CC1=C(C(=O)Nc2ccccc2)C(c2cccs2)C(C#N)=C(SCC(=O)Nc2cccc(C)c2)N1 (stereo not drawn) [RI_91]	–	–	60.7 % of control	55.9 % of control
COc1ccc(C2C(C#N)=C(N)N(c3ccccc3Cl)C3=C2C(=O)CCC3)cc1O (stereo not drawn) [ST051958, 2-amino-1-(2-chlorophenyl)-4-(3-hydroxy-4-methoxyphenyl)-5-oxo-1,4,6,7,8-pentahydroquinoline-3-carbonitrile]	80.2	56.6	–	–
CC1=C(C(=O)OCCc2ccccc2)C(c2ccccc2C(F)(F)F)C2=C(CCCC2=O)N1 (stereo not drawn) [ST052228, 2-phenylethyl 2-methyl-5-oxo-4-[2-(trifluoromethyl)phenyl]-1,4,6,7,8-pentahydroquinoline-3-carboxylate]	36.9	60.4	–	–
N#CC1=C(N)Nc2c(c(=O)oc3ccccc23)C1c1ccc(Br)cc1 (stereo not drawn) [ST014147, 2-amino-4-(4-bromophenyl)-5-oxo-1,4-dihydrochromeno[4,3-b]pyridine-3-carbonitrile]	–	–	68.55 % of control	82.09 % of control
CC1=C(C(=O)OCCc2ccccc2)C(c2ccc([N+](=O)[O-])cc2)C2=C(CC(C)(C)CC2=O)N1 (stereo not drawn) [ST014923, 2-phenylethyl 2,7,7-trimethyl-4-(4-nitrophenyl)-5-oxo-1,4,6,7,8-pentahydroquinoline-3-carboxylate]	28.4	0	–	–
CCOc1cc(C2C(C(=O)OCCSCC)=C(C)NC3=C2C(=O)CC(c2ccc(Cl)cc2)C3)ccc1O (stereo not drawn) [ST017243, 2-ethylthioethyl 7-(4-chlorophenyl)-4-(3-ethoxy-4-hydroxyphenyl)-2-methyl-5-ox o-1,4,6,7,8-pentahydroquinoline-3-carboxylate]	15.6	69.6	–	–
